Assay results from EP1019398B1, “BENZO(5,6)CYCLOHEPTA(1,2-B)PYRIDINE DERIVATIVES USEFUL FOR INHIBITION OF FARNESYL PROTEIN TRANSFERASE” (SCHERING CORPORATION, priority 1997, dated 1998).

Columns and labels:
[1] = system: COS Cell; assay: COS Cell IC50 (Cell-Based Assay), procedure of WO 95/10516; conditions: one range stated for the listed examples
Procedure: FPT IC50 (inhibition of farnesyl protein transferase. in vitro enzyme assay) and COS Cell IC50 (Cell-Based Assay) were determined following the assay procedures described in WO 95/10516, published April 20. 1995. GGPT IC50 (inhibition of geranylgeranyl protein transferase, in vitro enzyme assay). Cell Mat Assay, and anti-tumor activity (in vivo anti-tumor studies) could be determined by the assay procedures described in WO 95/10516. The disclosure of WO 95/10516 is incorporated herein by reference thereto.

[2] = system: Human tumor cells; assay: Soft Agar Assay (anchorage-independent growth, colony count after MTT staining); assay type: cell-based; conditions: 0.3% agarose top layer over 0.6% agarose, 10-16 days at 37°C under 5% CO2
Procedure: Anchorage-independent growth is a characteristic of tumorigenic cell lines. Human tumor cells can be suspended in growth medium containing 0.3% agarose and an indicated concentration of a farnesyl transferase inhibitor. The solution can be overlayed onto growth medium solidified with 0.6% agarose containing the same concentration of farnesyl transferase inhibitor as the top layer. After the top layer is solidified, plates can be incubated for 10-16 days at 37°C under 5% CO2 to allow colony outgrowth. After incubation, the colonies can be stained by overlaying the agar with a solution of MTT (3-[4,5-dimethylthiazol-2-yl]-2,5-diphenyltetrazolium bromide, Thiazolyl blue) (1 mg/mL in PBS). Colonies can be counted and the IC50's can be determined.

SMILES	IC50 [1] [nM]	IC50 [2] [nM]
O=C(CN1CCSCC1)N1CCC([C@H]2c3ncc(Br)cc3CCc3cc(Cl)cc(Br)c32)CC1 [Example 37]	1.8 to 143	–
O=C(CN1CC[S+]([O-])CC1)N1CCN(C2c3ccc(Cl)c(Br)c3CCc3cc(Br)cnc32)CC1 (single isomer, unassigned) [Example 39]	1.8 to 143	–
O=C(C=C1CCOCC1)N1CCC([C@H]2c3ncc(Br)cc3CCc3cc(Cl)cc(Br)c32)CC1 [Example 2]	1.8 to 143	–
O=C(CC1CCCCO1)N1CCC([C@H]2c3ncc(Br)cc3CCc3cc(Cl)cc(Br)c32)CC1 (some centres unmarked) [Example 8]	1.8 to 143	–
O=C(CC1CCSCC1)N1CCC([C@H]2c3ncc(Br)cc3CCc3cc(Cl)cc(Br)c32)CC1 [Example 5]	1.8 to 143	–
O=C(CC1CCOCC1)N1CCC([C@H]2c3ncc(Br)cc3CCc3cc(Cl)cc(Br)c32)CC1 [Example 1]	1.8 to 143	–
O=C(CC1CCOCC1)N1CCC(C2c3c(Br)cc(Cl)cc3CCc3cc(Br)c[n+]([O-])c32)CC1 (centres unmarked) [Example 40]	1.8 to 143	8
